Measured values published in patent US9630941B2 (priority 2008, dated 2017).

Experiments:
[1] = Chemical stability pH dependent at 25° C.; type: physicochemical
Procedure: B. Chemical Stability pH Dependent at 25° C.

[2] = Bioreversion: plasma stability, porcine plasma; type: in vitro ADME
[3] = Thermal stability, 120° C. for 10 min; type: physicochemical; conditions: for CBN content of the sample after heating / Drug remaining / THC content of the sample after heating / Drug remaining (%): 120° C. for 10 min; for Drug remaining (%): % of initial; for CBN content of the sample, initial / Initial, μg (drug itself) / THC content of the sample, initial: before heating
Procedure: C. Thermal Stability—120° C. for 10 min.

[4] = Porcine buccal tissue homogenate stability; type: in vitro ADME; conditions: protein concentration 2 mg/ml
Procedure: (§1) b. Porcine Buccal Tissue Homogenate Stability
(§2) Protein Concentration 2 mg/ml

[5] = Control (IPBS) stability for the buccal homogenate study; type: physicochemical
Procedure: as §1, §2

[6] = Aqueous solubility, pH dependent; type: physicochemical

| SMILES | First order rate constant ([1]; Buffer pH 5.0, 25° C.) | First order rate constant ([1]; Buffer pH 7.0, 25° C.) | First order rate constant ([1]; Buffer pH 9.0, 25° C.) | First order rate constant ([1]; Water, 25° C.) | K [2] | T1/2 [2] | Drug loading (%) [3] [%] | CBN content of the sample after heating [3] [µg] | Drug remaining [3] [µg] | THC content of the sample after heating [3] [µg] | Drug remaining (%) [3] | CBN content of the sample, initial [3] [µg] | Initial, μg (drug itself) [3] [µg] | THC content of the sample, initial [3] [µg] | K [4] | K [5] | Aqueous Solubility ([6]; H20) [µg/mL] | Aqueous Solubility ([6]; Water) [µM] | Aqueous Solubility ([6]; pH 1.2) [µg/mL] | Aqueous Solubility ([6]; pH 2) [µg/mL] | other results |
| --- | --- | --- | --- | --- | --- | --- | --- | --- | --- | --- | --- | --- | --- | --- | --- | --- | --- | --- | --- | --- | --- |
| CCCCCc1cc(OC(=O)CCCc2ccc(NC(=O)CCC(=O)O)cc2)c2c(c1)OC(C)(C)[C@@H]1CCC(C)=C[C@@H]21 [THC-APB-HS (14), THC-4(4-aminophenyl)butyrate-hemisuccinate] | 0.00368 h⁻¹ | Stable | Stable | 0.00481 h⁻¹ | Stable | Stable | 96.66 ± 2.18 | 38.36 ± 9.70 | 1518.84 ± 34.38 | 0 | (104.81 ± 4.74) % | 47.63 ± 9.92 | 1449.90 ± 32.76 | 0 | – | – | – | – | – | – | – |
| CCCCCc1cc(OC(=O)[C@@H](N)CCC(N)=O)c2c(c1)OC(C)(C)[C@@H]1CCC(C)=C[C@@H]21 [THC-Glutaminate (9), Δ^9-THC-glutaminate] | 70.23 ± 0.92 ×10^−3 h^−1 | 153.42 ± 4.26 ×10^−3 h^−1 | 756.35 ± 106.61 ×10^−3 h^−1 | 32.72 ± 15.19 ×10^−3 h^−1 | 53.41 ± 5.84 ×10^−2 min^−1 | 1.31 ± 0.14 min | 63.41 ± 2.57 | – | 721.31 ± 73.76 | – | (75.75 ± 4.69) % | – | 951.08 ± 38.55 | – | 40.41 ± 3.30 ×10^−3 min^−1 | 26.30 ± 0.14 ×10^−3 min^−1 | 1.61 ± 0.76 | 3.63 ± 1.72 | 59.55 ± 0.02 | 162.82 ± 14.39 | T1/2 [4]: 17.21 ± 1.40 min; Aqueous Solubility ([6]; pH 1.2, listed as THC-Glutamine): 134.25 ± 0.05 µM; Aqueous Solubility ([6]; pH 2, listed as THC-Glutamine): 367.06 ± 32.44 µM; Aqueous Solubility ([6]; pH 3): 46.29 ± 1.13 µg/mL; Aqueous Solubility ([6]; pH 3, listed as THC-Glutamine): 104.36 ± 2.55 µM; Aqueous Solubility ([6]; pH 4): 22.24 ± 2.20 µg/mL; Aqueous Solubility ([6]; pH 4, listed as THC-Glutamine): 50.13 ± 4.97 µM; Aqueous Solubility ([6]; pH 5): 5.76 ± 0.02 µg/mL; Aqueous Solubility ([6]; pH 5, listed as THC-Glutamine): 12.99 ± 0.04 µM; Aqueous Solubility ([6]; pH 6): 2.15 ± 0.32 µg/mL; Aqueous Solubility ([6]; pH 6, listed as THC-Glutamine): 4.84 ± 0.72 µM; Aqueous Solubility ([6]; pH 7): 0.52 ± 0.06 µg/mL; Aqueous Solubility ([6]; pH 7, listed as THC-Glutamine): 1.18 ± 0.14 µM; Aqueous Solubility ([6]; pH 8): 0.34 ± 0.33 µg/mL; Aqueous Solubility ([6]; pH 8, listed as THC-Glutamine): 0.76 ± 0.74 µM; Aqueous Solubility ([6]; pH 9): 0.16 ± 0.02 µg/mL; Aqueous Solubility ([6]; pH 9, listed as THC-Glutamine): 0.35 ± 0.04 µM |
| CCCCCc1cc(OC(=O)CNC)c2c(c1)OC(C)(C)[C@@H]1CCC(C)=C[C@@H]21 [THC-Sarcosinate (7), Δ^9-THC-sarcosinate] | 38.35 ± 4.32 ×10^−3 h^−1 | 605.61 ± 125.14 ×10^−3 h^−1 | 1209.25 ± 203.05 ×10^−3 h^−1 | 25.45 ± 21.99 ×10^−3 h^−1 | 63.16 ± 10.44 ×10^−2 min^−1 | 1.11 ± 0.18 min | 79.82 ± 0.85 | 33.83 ± 0.97 | 841.38 ± 40.18 | 54.53 ± 3.35 | (70.30 ± 4.10) % | 40.05 ± 3.45 | 1197.24 ± 12.69 | 26.68 ± 3.80 | 37.36 ± 3.87 ×10^−3 min^−1 | 23.47 ± 1.60 ×10^−3 min^−1 | – | – | 101.38 ± 29.22 | 151.75 ± 9.33 | Aqueous Solubility ([6]; pH 1.2, listed as THC-Sarcosine): 263.16 ± 75.84 µM; Aqueous Solubility ([6]; pH 2, listed as THC-Sarcosine): 393.89 ± 24.21 µM; Aqueous Solubility ([6]; pH 3): 96.52 ± 2.84 µg/mL; Aqueous Solubility ([6]; pH 3, listed as THC-Sarcosine): 250.54 ± 7.38 µM; Aqueous Solubility ([6]; pH 4): 50.74 ± 1.98 µg/mL; Aqueous Solubility ([6]; pH 4, listed as THC-Sarcosine): 131.70 ± 5.13 µM; Aqueous Solubility ([6]; pH 5): 7.14 ± 0.72 µg/mL; Aqueous Solubility ([6]; pH 5, listed as THC-Sarcosine): 18.54 ± 1.87 µM; Aqueous Solubility ([6]; pH 6): 0.53 ± 0.07 µg/mL; Aqueous Solubility ([6]; pH 6, listed as THC-Sarcosine): 1.38 ± 0.18 µM |
| CCCCCc1cc(OC(=O)[C@@H](N)Cc2c[nH]c3ccccc23)c2c(c1)OC(C)(C)[C@@H]1CCC(C)=C[C@@H]21 [THC-Tryptophanate (10), Δ^9-THC-tryptophinate] | 0.00829 h⁻¹ | 0.03803 h⁻¹ | – | – | 48.55 ± 5.90 ×10^−2 min^−1 | 1.44 ± 0.17 min | 89.84 ± 4.53 | 16.63 ± 2.63 | 1216.70 ± 32.88 | 96.10 ± 16.64 | (90.47 ± 7.00) % | 25.59 ± 2.26 | 1347.57 ± 67.93 | 97.38 ± 6.39 | 9.06 ± 1.26 ×10^−3 min^−1 | 0.77 ± 0.02 ×10^−3 min^−1 | – | – | – | – | T1/2 [4]: 77.27 ± 10.73 min |
| CCCCCc1cc(OC(=O)C(N)Cc2c[nH]c3ccccc23)c2c(c1)OC(C)(C)C1CCC(C)=CC21.O=C(O)CC(=O)O (centres unmarked) [THC-Tryptophanate Malonate] | – | – | – | – | – | – | – | – | – | – | – | – | – | – | – | – | 13.27 ± 14.72 | 8.02 ± 8.90 | 1.58 ± 0.19 | 4.65 ± 0.31 | Aqueous Solubility ([6]; pH 1.2, listed as THC-Tryptophan Malonate): 0.95 ± 0.12 µM; Aqueous Solubility ([6]; pH 2, listed as THC-Tryptophan Malonate): 2.81 ± 0.19 µM |
| CCCCCc1cc(OC(=O)[C@@H](N)C(C)C)c2c(c1)OC(C)(C)C1CCC(C)=CC21.O=C(O)CC(=O)O (some centres unmarked) [THC-Valinate malonate] | – | – | – | – | – | – | – | – | – | – | – | – | – | – | – | – | 1.21 ± 0.61 | 2.33 ± 1.19 | 53.63 ± 1.09 | 118.42 ± 5.07 | Aqueous Solubility ([6]; pH 1.2, listed as THC-Valine malonate): 103.61 ± 2.11 µM; Aqueous Solubility ([6]; pH 2, listed as THC-Valine malonate): 228.78 ± 9.79 µM; Aqueous Solubility ([6]; pH 3): 50.03 ± 1.80 µg/mL; Aqueous Solubility ([6]; pH 3, listed as THC-Valine malonate): 96.65 ± 3.49 µM; Aqueous Solubility ([6]; pH 4): 13.92 ± 1.56 µg/mL; Aqueous Solubility ([6]; pH 4, listed as THC-Valine malonate): 26.88 ± 3.01 µM; Aqueous Solubility ([6]; pH 5): 1.22 ± 0.00 µg/mL; Aqueous Solubility ([6]; pH 5, listed as THC-Valine malonate): 2.36 ± 0.01 µM; Aqueous Solubility ([6]; pH 6): 0.13 ± 0.02 µg/mL; Aqueous Solubility ([6]; pH 6, listed as THC-Valine malonate): 0.25 ± 0.04 µM; Aqueous Solubility ([6]; pH 7): 0.05 ± 0.02 µg/mL; Aqueous Solubility ([6]; pH 7, listed as THC-Valine malonate): 0.11 ± 0.03 µM; Aqueous Solubility ([6]; pH 8): 0.06 ± 0.00 µg/mL; Aqueous Solubility ([6]; pH 8, listed as THC-Valine malonate): 0.12 ± 0.01 µM; Aqueous Solubility ([6]; pH 9): 0.14 ± 0.02 µg/mL; Aqueous Solubility ([6]; pH 9, listed as THC-Valine malonate): 0.27 ± 0.03 µM |
